{"source": "patent US20120329761A1", "about": "“USE OF TIGECYCLINE FOR TREATMENT OF CANCER” (UNIVERSITY HEALTH NETWORK, priority 2010, published 2012)", "key": {"[1]": {"system": "primary normal hematopoietic cells (PBSC)", "assay": "Cell death by Annexin V staining, 48 hours", "type": "cell-based, human", "conditions": "normal PBSC from G-CSF mobilized donors, n=5, 48 hours", "protocol": "(§1) FIG. 2. Tigecycline induces cell death and inhibits clonogenic growth in primary AML cells preferential over normal hematopoietic cells. Mononuclear cells from peripheral blood of leukemia patients (blast count >80%) and normal G-CSF expanded donors was treated with increasing concentrations of tigecycline for 48 hours. Cell viability was measured by Annexin-PI flow cytometry staining. Cell viability is expressed as a mean percentage plus or minus SD (n=3) relative to DMSO-treated cells. Mononuclear cells from primary AML patient samples (A, B) and normal peripheral blood cells (C) were plated in methylcelluose with 5 μM of Tigecycline. (D) Colony forming units were counted at 7 days (AML) and 14 days (Normal) post plating. Percent colony formation is represented compared to DMSO-treated plated cells.\n(§2) Primary human acute myeloid leukemia (AML) samples were isolated from fresh peripheral blood samples of consenting patients with AML. Similarly, primary normal hematopoietic cells were obtained from healthy consenting volunteers donating peripheral blood […] (PBSC) for stem cell transplantation. The mononuclear cells were isolated from the samples by Ficoll density centrifugation. Primary cells were cultured at 37° C. in IMDM supplemented with 20% FCS, 1 mM of L-glutamine and appropriate antibiotics. […]\n(§3) Cell growth and viability was assessed by the MTS assay (Promega, Madison, Wis.) according to the manufacturer's instructions. Apoptosis and cell death was measured by Annexin V-fluoroscein isothiocyanate (FITC; Biovision Research Products, Mountain View, Calif.), propidium iodide staining and flow cytometry according to the manufacturer's instructions and as previously described^30.\n(§4) Given the cytotoxicity of tigecycline towards leukemia cell lines, the ability of tigecycline to induce cell death in primary acute myeloid leukemia (AML) patient samples and normal hematopoietic cells was compared and evaluated. […] After incubation, cell viability was measured by Annexin V staining."}, "[2]": {"system": "primary AML patient samples", "assay": "Cell death by Annexin V staining, 48 hours", "type": "cell-based, human", "protocol": "as §1, §2, §3, §4"}, "Complex I, II and IV": {"system": "Complex I, II and IV", "assay": "Respiratory chain complex enzyme activity relative to citrate synthase", "type": "cell-based, human", "conditions": "TEX cells, 2.5 μM and 5 μM, 72 hours", "protocol": "FIG. 4. Tigecycline decreases mitochondrial Cox-1 protein levels in TEX cells. (A) Cells from TEX, OCI-AML2 and two primary AML patients were treated with increasing concentrations (2.5 μM and 5 μM) of tigecycline for 36 and 48 hours of tigecycline. Total proteins were extracted and analyzed by western blotting for Cox-1, Cox-2, Cox-4, grp78, XIAP, actin and tubulin. (B) TEX and AML patient cells were treated with increasing concentrations (2.5 μM and 5 μM) of tigecycline. Cox-1, Cox-2, and Cox-4 mRNA expression relative 18S was determined by quantitative RT-PCR. Data is shown as mean±SD. (C) TEX cells were treated with increasing concentrations of tigecycline and chloramphenicol (CAP) for 72 hours. Complex I, II and IV enzyme activity relative to citrate synthase activity was determined as described in materials and methods. (D) Cells from TEX, primary AML patients, and normal donors were treated with increasing concentrations of tigecycline. Mitochondrial membrane potential (Δψ) was determined by staining cells with JC-1 dye, and flow cytometry analysis (Red/Green ratio). Reactive oxygen species generation (ROS) was determined by staining with h2-DCFDA and Dihydroethidium (DHE).\nThe effect of tigecycline treatment on enzyme activity of the respiratory chain complexes relative to the mitochondrial non-respiratory chain enzyme citrate synthase was examined. TEX leukemia cells were treated with tigecycline for […] and then respiratory chain enzyme relative to citrate synthase activity was analyzed. Equivalent tigecycline concentrations (2.5 μM and 5 μM) decreased enzyme activities of Complexes I and IV relative to citrate synthase, while complex II activity was less affected (FIG. 4C)."}, "TEX cells": {"system": "TEX cells", "assay": "Apoptosis by Annexin V flow cytometry", "type": "cell-based, human", "conditions": "over time", "protocol": "(§5) FIG. 1. […] (A) TEX and (B) M9-ENL1 cells were plated in 96-well plates and drugs were added to the wells (5 μL per well) for final concentrations of 10 μM (shown) and 1 μM. Cell growth and viability was measured at 48 hours (M9-ENL-1) and 72 hours (TEX) by MTS assay. Cell viability is shown for each compound as a percent of cells treated with DMSO alone. (C) Leukemia, (D) myeloma, and (E) solid tumor cell lines were seeded in 96-well plates and then treated with increasing concentrations of tigecycline. Cell growth and viability was measured at 72 hours by MTS assay. Cell viability is expressed as mean percentage plus or minus SD (n=3) relative to vehicle-treated cells. […] Cell viability was measured at 72 hours by MTS assay. Cell viability is expressed as mean percentage plus or minus SD (n=3) relative to vehicle-treated cells.\nas §3"}, "myeloma cell lines": {"system": "myeloma cell lines", "assay": "Cell growth and viability, MTS assay, 72 hours", "type": "cell-based", "protocol": "as §5\n(§6) Human leukemia (OCI-AML2, HL60, U937) cell lines were maintained in RPMI 1640 medium. Myeloma (LP-1, KMS11, 8226, JJN3, OP-M2) cell lines were maintained in Iscove's media. Ovarian (OVCAR), prostate (PC3), and lung alveolar (A549) cell lines were maintained in RPMI 1640 medium. Media was supplemented with 10% fetal calf serum (FCS), […] (all from Hyclone, Logan, Utah). TEX cells were maintained in IMDM, 15% FBS, 2 mM L-glutamine, 1%, penicillin-streptomycin, 20 ng/mL SCF, 2 ng/mL IL-3. M9-ENL1 cells were maintained in alpha-MEM, 20% FBS, 5% human plasma, 2 mM L-glutamine, 1%, penicillin-streptomycin, 100 ng/mL SCF, 10 ng/mL IL-3, 5 ng/mL IL-7, and 5 ng/mL FLT3L. All cells were incubated at 37° C. in a humidified air atmosphere supplemented with 5% CO2.\nas §3"}, "solid tumour cell lines": {"system": "solid tumour cell lines", "assay": "Cell growth and viability, MTS assay, 72 hours", "type": "cell-based", "protocol": "as §5, §6, §3"}, "leukemia cell lines": {"system": "leukemia cell lines", "assay": "Cell growth and viability, MTS assay, 72 hours", "type": "cell-based", "conditions": "tested leukemia cell lines", "protocol": "as §5, §6, §3"}}}
{"smiles": "CN(C)c1cc(NC(=O)CNC(C)(C)C)c(O)c2c1C[C@H]1C[C@H]3[C@H](N(C)C)C(O)=C(C(N)=O)C(=O)[C@@]3(O)C(O)=C1C2=O", "note": "[tigecycline]", "values": [{"measurement": "LD50", "setting": "[1]", "value": "> 10", "unit": "µM"}, {"measurement": "LD50", "setting": "[2]; more resistant group of patients, n=7, 48 hours", "value": "> 9", "unit": "µM"}, {"measurement": "LD50", "setting": "[2]; sensitive subset of leukemia patients, n=13, 48 hours", "value": 5, "unit": "µM"}, {"measurement": "Complex I enzyme activity relative to citrate synthase", "setting": "Complex I, II and IV", "value": "decreased"}, {"measurement": "Complex II enzyme activity relative to citrate synthase", "setting": "Complex I, II and IV", "value": "less affected"}, {"measurement": "Complex IV enzyme activity relative to citrate synthase", "setting": "Complex I, II and IV", "value": "decreased"}, {"measurement": "apoptosis, percentage of cells labeled by Annexin V", "setting": "TEX cells", "value": "time-dependent increases in apoptosis"}, {"measurement": "IC50", "setting": "myeloma cell lines", "value": "> 10", "unit": "µM"}, {"measurement": "IC50", "setting": "solid tumour cell lines", "value": "> 10", "unit": "µM"}, {"measurement": "IC50", "setting": "leukemia cell lines", "value": "5 to 8", "unit": "µM"}]}
